Assay results taken from patent publication US20230263909A1, “ENHANCED EFFECTS OF GENE-IMMUNOTHERAPY AND IMMUNOSUPPRESSANTS IN MULTIPLE SCLEROSIS” (University of Florida Research Foundation, Incorporated, priority 2020, published 2023).
Like-named read-outs stand apart in the source and are kept apart here.

Columns and labels:
MOG35-55-induced EAE = details: vector at MCS <2.5, PRDL at MCS ≥ 3.0 (FIG. 33A)
Experimental: Using 8-week-old Female C57BL/6 mice, EAE was induced with a myelin oligodendrocyte glycoprotein epitope (MOG35-55) in CFA. As mice developed disease (MCS 2.0± 0.5), mice were injected with a hepatocyte-directed viral vector encoding MOG (e.g., AAV.MOG vector) and began daily administration of prednisolone (PRDL) via oral gavage (10 mg/kg animal) every 24 hours until day 7. Control mice were treated with prednisolone only, without the administration of vector or with Null vector. At day 7, prednisolone treatment was discontinued, except for the half of the control group receiving treatment which continued receiving prednisolone.
An experiment was performed to assess the effect of supplementing rAAV therapy with PRDL in high clinical score mice. C57BL/6 mice were administered AAV.MOG or AAV.Null control at disease onset, or a mean clinical score of 2.0±0.5. Subsequently, at the peak of disease, or an MCS ≥ 3.0, mice were administered oral gavage of PRDL (10 mg/kg). […] Subsequently, at an MCS ≥ 3.0, mice were administered oral gavage of PRDL (10 mg/kg).
In an experiment in which the order of administrations was essentially reversed, C57BL/6 mice received AAV.MOG or AAV.Null after EAE developed to an MCS of 2.5 or higher. At the peak of disease (MCS ≥3.0), mice were started on oral gavage of PRDL as before.

[1] = test system: plasma alanine aminotransferase (ALT); test: Plasma alanine aminotransferase (ALT) activity; type: in vivo, C57BL/6 mice
Excerpt: Although various proteins have been safely expressed in the liver following AAV gene transfer,^89 evaluating the long-term stability of MOG expression in hepatocytes in the context of induced EAE was of interest. […] Additionally, hepatocyte expression of MOG persisted in the mice that received AAV8.MOG until termination of experiment at 200 days after EAE induction (FIG. 20A).
Plasma ALT levels were also monitored as an indicator of liver damage and failure of therapy. As reported above, the level of ALT activity detected in AAV8.MOG-treated mice and control mice was unremarkable throughout the rapamycin treatment window (FIGS. 24G and 24H). […] Based on the profound level of neurological impairment the control mice were experiencing, the significant rise in ALT is indicative of liver toxicity associated with end-stage organ failure (FIGS. 24B and 24C).

CD4+CD25hiFOXP3+ Tregs = test: Peripheral blood Treg phenotyping before and after rapamycin; type: in vivo, C57BL/6 mice; details: after rapamycin
Excerpt: Flow Cytometry. Peripheral blood cells or splenocytes harvested from mice and processed to produce single-cell suspensions were stained with antibodies to CD3 (145-2C11), CD4 (RM4-5), CD25 (PC61), CD8 (53-6.7), B220 (RA3-6B2), CD44 (IM7), and CD62L (MEL14) (BD Biosciences, San Jose, CA, USA). Class II MHC tetramers included MOG38-49/I-Ab class II MHC (GWYRSPFSRVVH) and h.CLIP87-101 (PVSKMRMATPLLMQA), and were provided by the NIH Tetramer Core (Emory University, Atlanta, GA, USA). Red blood cell lysis was performed with VersaLyse (Beckman Coulter, Brea, CA, USA). Intracellular staining for FOXP3 was performed using the FOXP3 staining kit (eBioscience, San Diego, CA, USA). Samples were analyzed on an LSR-II flow cytometer (BD Biosciences) and post-analyzed using FCS Express 4 (Denovo Software, Los Angeles, CA, USA).
Rapamycin blocks the activation of a serine/threonine protein kinase called mammalian target of rapamycin (mTOR), which has a potent anti-proliferative effect on antigen-stimulated effector T and B cells. […] In contrast, when analyzed after the final rapamycin dose on day 10, there was an ~33% difference in total Tregs between control mice receiving rapamycin alone and AAV8.MOG-treated animals (FIGS. 24D and 24E).
CD44 is a cell-surface glycoprotein involved in cell-to-cell interactions that are important in activation, migration, and apoptosis.

[2] = test system: established MOG35-55-induced EAE; test: Therapeutic AAV8.MOG with transient rapamycin immunosuppression in established EAE; type: in vivo, C57BL/6 mice
Experimental: Vector Administration. […] Two weeks later, EAE was induced. To evaluate the therapeutic effect of vector administration, EAE was induced first in 9- to 11-week-old mice before the administration of vectors. As mice reached the targeted/indicated severity of disease they were injected with […] of AAV8.MOG or control vector (scAAV.GFP or sham/PBS) via the tail vein. Rapamycin (LC Laboratories, Woburn, MA, USA) was dissolved in a vehicle solution containing (0.2% w/v) carboxymethyl-cellulose sodium salt (C-5013) and (0.25% v/v) polysorbate-80 (P-8074) (Sigma, St. Louis, MO, USA) in distilled water and stored at 4° C. protected from light according to the manufacturer’s instructions. Rapamycin (5 mg/kg) was given i.p. as indicated for a total of three and five doses beginning on the day of vector administration.
To test the hypothesis, the experimental parameters that previously produced the smallest degree of disease reversal were reestablished (FIG. 23C). EAE was induced and AAV8.MOG treatment was withheld until mice developed complete tail paralysis with hind-leg paresis (MCS: 1.4 ± 0.1, combined). Immediately after being treated with either AAV8.MOG or PBS/control, all mice received an intraperitoneal injection of rapamycin (5 mg/kg). Subsequently, mice received two additional doses of rapamycin (5 mg/kg) 48 hr apart (FIGS. 24). As expected, EAE disease progressed quickly and both groups of mice developed severe neurological deficits and paralysis (peak MCS: 2.9-3.0) (FIG. 24A). […] In contrast, neurological deficits in AAV8.MOG-treated mice continued to decrease, and all but one animal (90%) achieved complete remission (final MCS: 0.5 ± 0.3) (FIG. 24A).
Next, the effectiveness of the combined immunotherapy in late and end-stage EAE disease was tested. […] Remarkably, mice that received the AAV8.MOG/rapamycin immunotherapy, 71% (FIG. 24B) and 80% (FIG. 24C), respectively, responded to the treatment and went into near-complete remission (MCS: […]) by day ~30.

Structure (SMILES) | effect of PRDL on induction of tolerance by vector (MOG35-55-induced EAE) | effect of PRDL on induction of tolerance by vector (MOG35-55-induced EAE; listed as PDRL) | plasma ALT levels ([1]; 35 days post-treatment) | plasma ALT activity ([1]; throughout the rapamycin treatment window) | increase in activated Tregs (CD4+CD44+CD25hiFOXP3+) (CD4+CD25hiFOXP3+ Tregs) [%] | final MCS ([2]; rapamycin-only control mice, 35 days post-treatment, late-stage cohorts) | final MCS ([2]; treated at MCS 1.4 ± 0.1, all mice rapamycin 5 mg/kg i.p. x3) | mice relapsed by day 10 ([2]; treated at MCS 1.4 ± 0.1, rapamycin without vector) [%]
C[C@]12C=CC(=O)C=C1CC[C@@H]1[C@@H]2[C@@H](O)C[C@@]2(C)[C@H]1CC[C@]2(O)C(=O)CO [PRDL, prednisolone] | did not interfere with induction of tolerance | did not interfere with, nor supplement, the ability of AAV.MOG to suppress EAE |  |  |  |  |  | 
CO[C@H]1C[C@@H]2CC[C@@H](C)[C@@](O)(O2)C(=O)C(=O)N2CCCC[C@H]2C(=O)O[C@H]([C@H](C)C[C@@H]2CC[C@@H](O)[C@H](OC)C2)CC(=O)[C@H](C)/C=C(\C)[C@@H](O)[C@@H](OC)C(=O)[C@H](C)C[C@H](C)/C=C/C=C/C=C/1C [rapamycin] |  |  | significant increase in plasma ALT levels | unremarkable | 10.5 | 3.6 ± 0.5 | 3.5 ± 0.3 | 100
